The text below walks through data of US11771692B2, “N-hydroxyethyl didehydroazapodophyllotoxins as GBP1 inhibitors and methods of overcoming treatment resistance in cancer” (The Board of Trustees of the Leland Stanford Junior …, priority 2018, dated 2023).

Assay [1] relates to GBP1. The assay can be described thus: cell-based reporter assay, OVCAR-8 stably transfected with GBP-1-luciferase. The settings on record: OVCAR-8 GBP-1-luciferase. From the text:
Exemplary compounds (1)-(17) and previously identified compound SU093 (Andreoli, M., Persico, M.; Kumar, A.; Orteca, N.; Kumar, V.; Pepe, A.; Mahalingam, S.; Alegria, A. E.; Petrella, L.; Sevciunaite, L.; Camperchioli, A.; Mariani, M.; Di Dato, A.; Novellino, E.; Scambia, G., Malhotra, S. V.; Ferlini, C.; Fattorusso, C., Identification of the First Inhibitor of the GBP1:PIM1 Interaction. Implications for the Development of a New Class of Anticancer Agents against Paclitaxel Resistant Cancer Cells. Journal of Medicinal Chemistry 2014, 57 (19), 7916-7932) were tested for GBP1 inhibition using a cell-based reporter assay in ovarian cancer cell line OVCAR-8 stably transfected with GBP-1-luciferase. Tables 1 and 2 below outlines the percentage of GBP1 expression in OVCAR-8 cells for each of the 17 compounds tested.
(In a reporter assay the amount or activity of a reporter protein is the signal.)

The test system of assay [2] is SCC-90 tumor xenograft. In words: Head and neck SCC-90 tumor xenograft in nude mice. Type of assay: in vivo. The settings on record: SCC-90, nude mice. The protocol:
An immunodeficient nude mice model was also used to study the in vivo potential of SU093 and SU056 for head and neck cancer. Nude mice (n=3/group) were subcutaneously injected in the right flank with 5×10^6 SCC-90 cells mixed with matrigel and observed regularly until the tumor size reached about 200 mm^3. The treatment regime with drugs including dose, formulation and route of delivery was similar to ovarian cancer study discussed above. Doses of SU093 and SU056 were administered daily until 35 days and mice were sacrificed thereafter. […] At the end of 35 days, calculated tumor volume/mouse was 860.33±21.78 mm^3, 694.67±14.64 mm^3, and 435.00±10.81 mm^3 for control, SU093 and SU056 treatment groups, respectively. This equates to a 20% and 50% reduction in tumor volume for SU093 and SU056 treatment groups, respectively. A decrease in tumor weight of about 21% (P value not significant) and 54% (P<0.002) was also observed for the SU093 and SU56 treatment groups, respectively.

For assay [3], the system named is ID-8 tumor xenograft. The assay can be described thus: Ovarian ID-8 tumor xenograft in C57BL6 mice. Type of assay: in vivo. Conditions: ID-8, 20 mg/kg IP daily. An excerpt: An immunocompetent syngeneic mouse model was used to evaluate in vivo antitumor effect of SU093 and SU056 (also referred to herein as Compound (I)) for ovarian cancer. C57BL6 female mice (n=5/group) were subcutaneously injected in the right flank with 5×10^6 ID-8 cells mixed with matrigel. From the day following xenograft implantation, mice were monitored regularly for tumor growth and once the tumors reached approximately 100 mm^3, the mice were randomly divided into three groups and respective treatments were given.
Group I (vehicle control): 100 μl of 10% PEG300 (w/v) in saline;
Group II: mice treated with SU093 (20 mg/kg); and
Group III: mice treated with SU056 (20 mg/kg).
Doses were administered intraperitoneally (IP) for 7 days/week for 42 days and the mice were sacrificed on day 43. Tumor sizes were measured twice weekly using digital caliper and tumor volume was calculated by the formula: 0.5236 L1 (L2)^2, where L1 is long diameter, and L2 is short diameter.

SMILES strings stand for the structures.

Regarding `O=C1OCC2=C1C(c1cccc(F)c1)c1cc3c(cc1N2CCO)OCO3` (centres unmarked) [SU056], the “% GBP1 expression OVCAR-8 @5 nM” value in assay [1] (5 nM) worked out at 54.16%. The “% GBP1 expression OVCAR-8 @10 nM” value in assay [1] (10 nM) is recorded as 43.36%. In assay [2] (20 mg/kg IP daily, end of 35 days), this compound registered a tumor volume/mouse of 435.00±10.81 mm^3. Also, in assay [2] (35 days, vs control), the “decrease in tumor weight” value is approximately 54% and the “reduction in tumor volume” value stood at 50%. Moreover, in assay [3] (42 days, vs control), the “reduction in tumor volume” value amounted to 49.55% and the tumor weight decreased is 53.44%. For the same compound, in assay [3] (end of 6 weeks), the tumor volume/mouse came to 257.39±21.6 mm^3.
